Experimental data as given in patent US20240150365A1 (Hotspot Therapeutics, Inc., priority 2022, published 2024).
Where two headings read alike, the source gives them in different places.

How the values were obtained:
NF-kB = NF-kB reporter assay in Jurkat cells stimulated with aCD3/aCD28/PMA; format: cell-based; conditions: Homo sapiens, Jurkat, read-out: NF-kB Reporter Assay IC50
Experimental: Jurkat cells were maintained in complete RPMI 1640 media supplemented with 10% FBS. Prior to the assay, 120 nL of the serial diluted compound was added in each well of 384-well flat bottom white plate (Corning #3570) by using liquid handler Echo550. Jurkat cells were harvested by centrifugation at 120 g for 10 min and resuspended in fresh RPMI 1640 media without serum. 30 μL of cells (25,000 cells) were seeded in each well of 384-well plate containing compound. After 1 hr incubation at 37° C. in a 5% CO2 incubator, 10 μL of diluted aCD3/aCD28/PMA (final concentration at 5 μg/mL, 5 μg/mL and 0.03 μg/mL, respectively) in RPMI 1640 without serum were added to each well. After incubation at 37° C. in 5% CO2 for 4 hr, 30 μL of One-Glo reagent (Promega #E6120) was added into each well. The plate was left at room temperature for 5 min and the signal was measured on EnVision (PerkinElmer).
Compounds in which an IC50 was not measured are designated as “N/A”.

MALT1 = target: T1, MALT1 (Homo sapiens, UniProt Q9UDY8); test: MALT-1 Fluorogenic Peptide Cleavage Assay (MALT1 inhibition assay); format: biochemical; conditions: Avi-tagged FL MALT-1, Ac-LRSR-AMC peptide substrate, 30 min pre-incubation, 90 min reaction
T1 construct: Avi-tagged FL MALT-1 (Pharmaron, stored at −70° C.); Avi tag
T1 sequence (Q9UDY8 1-824): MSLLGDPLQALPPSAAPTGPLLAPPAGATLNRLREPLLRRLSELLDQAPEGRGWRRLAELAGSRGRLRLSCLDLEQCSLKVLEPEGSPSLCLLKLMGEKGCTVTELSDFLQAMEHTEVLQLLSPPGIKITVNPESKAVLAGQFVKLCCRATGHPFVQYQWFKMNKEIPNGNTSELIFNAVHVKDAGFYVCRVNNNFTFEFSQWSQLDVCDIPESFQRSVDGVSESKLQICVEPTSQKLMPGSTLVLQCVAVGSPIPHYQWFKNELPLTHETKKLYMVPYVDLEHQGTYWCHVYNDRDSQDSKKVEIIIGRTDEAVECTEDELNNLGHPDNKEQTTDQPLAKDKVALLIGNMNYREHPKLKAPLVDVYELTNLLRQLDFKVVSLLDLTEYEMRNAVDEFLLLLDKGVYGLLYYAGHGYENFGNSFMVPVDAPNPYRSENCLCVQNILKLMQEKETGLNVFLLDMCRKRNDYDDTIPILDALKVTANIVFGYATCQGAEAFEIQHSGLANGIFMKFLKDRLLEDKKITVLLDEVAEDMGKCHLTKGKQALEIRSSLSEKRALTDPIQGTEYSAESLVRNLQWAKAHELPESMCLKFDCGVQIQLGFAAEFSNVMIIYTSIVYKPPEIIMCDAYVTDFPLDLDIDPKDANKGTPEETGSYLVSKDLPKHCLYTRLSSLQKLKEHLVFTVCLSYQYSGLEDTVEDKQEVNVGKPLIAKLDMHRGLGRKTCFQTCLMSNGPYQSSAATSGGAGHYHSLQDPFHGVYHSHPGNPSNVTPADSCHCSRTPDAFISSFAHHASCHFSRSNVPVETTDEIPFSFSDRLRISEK
Experimental: Inhibition of MALT1 activity by the presence of small molecules was evaluated using MALT-1 Fluorogenic Peptide Cleavage Assay. The assay utilizes a quenched AMC-labelled peptide that contains the MALT-1 recognition sequence and cleavage site (LRSR). MALT-1 mediated cleavage of the peptide relieves the quenching and leads to an increase in fluorescence at excitation (342 nm) and emission (441 nm). The following reagents were obtained commercially and used to prepare standard reagent formulations as further described below: […] The standard reagent formulations used in this assay were prepared and stored as follows. A 1.1 M solution of sodium citrate (161.3 g, 500 mL) was prepared and stored at room temperature. A 10% (w/v) CHAPS solution (2.0 g, 20 mL) was prepared and stored at 4° C. A 500 mM HEPES solution having pH of 6.89 was prepared from 200 mL of a 1 M HEPES solution having a pH of 7.5 using concentrated hydrochloric acid and brought to a final volume of 400 mL with […]® H2O. The substrate, 10 mM Ac-LRSR-AMC Peptide, was prepared (10 mg, 1.370 mL DMSO) and stored at -20° C. Compounds were plated to provide a 2% DMSO final concentration using a ProxiPlate-384 Plus F Black 384-shallow well microplate. The assay-ready plates were equilibrated to room temperature. […] DMSO was added only when compound plates had not been DMSO-backfilled to 2%. MALT-1 was thawed and kept on ice. Peptide substrate was thawed on the bench under ambient conditions. A MALT-1 enzyme working stock was prepared from Avi-tagged FL MALT-1 (40 nM in a prepared reagent volume of 16.5 μL) and the reaction buffer (13.0 mL). MALT1 working stock (5 μL) was added to each well of the microplate. MALT-1 was pre-incubated with compounds for 30 minutes at room temperature. […] The plates were covered and incubated on the bench at room temperature for 90 minutes. Fluorescence intensity was determined using a CLARIOstar microplate reader (BMG LABTECH) using the optimised AMC mode. Before taking readings, a 70% gain was applied on the neutral control well. Compound data were normalised to % Inhibition and used to plot sigmoidal concentration response curves to yield various parameters including IC50. […] Compounds in which an IC50 was not measured are designated as “N/A”.

[1] = Jurkat cells, 1 hr compound incubation, aCD3/aCD28/PMA stimulation 4 hr, One-Glo readout

| Compound | IC50 (NF-kB; [1]) [nM] | IC50 (MALT1) [nM] | IC50 (NF-kB) [nM] |
| --- | --- | --- | --- |
| Cc1cc(-c2ccc(S(=O)(=O)Nc3cccc4cnn(C)c34)cn2)on1 [Example I-98, N-(1-Methyl-1H-Indazol-7-yl)-6-(3-Methylisoxazol-5-yl)Pyridine-3-Sulfonamide] | < 400 | > 2500 |  |
| COc1ccc2cnn(C)c2c1NS(=O)(=O)c1ccc(-n2cc(Cl)cn2)nc1 [Example I-13, 6-(4-Chloro-1H-Pyrazol-1-yl)-N-(6-Methoxy-1-Methyl-1H-Indazol-7-yl)Pyridine-3-Sulfonamide] | < 400 | < 400 |  |
| Cc1nc(-c2ccc(S(=O)(=O)Nc3cccc4cnn(C)c34)cn2)cn1C(F)(F)F [Example I-264, 6-(2-methyl-1-(trifluoromethyl)-1H-imidazol-4-yl)-N-(1-methyl-1H-indazol-7-yl)pyridine-3-sulfonamide] | < 400 | > 2500 |  |
| COc1ncc2cnn(C)c2c1NS(=O)(=O)c1ccc(-n2ccc(C(F)(F)F)n2)nc1 [Example I-156, N-(6-Methoxy-1-Methyl-1H-Pyrazolo[4,3-C]Pyridin-7-yl)-6-(3-(Trifluoromethyl)-1H-Pyrazol-1-yl)Pyridine-3-Sulfonamide] | < 400 | < 400 |  |
| Cn1ncc2cccc(NS(=O)(=O)c3ccc(-c4cccc(=O)[nH]4)nc3)c21 [Example I-118, N-(1-Methyl-1H-Indazol-7-yl)-6′-Oxo-1′,6′-Dihydro-[2,2′-Bipyridine]-5-Sulfonamide] | > 2500 | > 2500 |  |
| Cn1ncc2cccc(NS(=O)(=O)c3ccc(-c4cncs4)nc3)c21 [Example I-101, N-(1-Methyl-1H-Indazol-7-yl)-6-(Thiazol-5-yl)Pyridine-3-Sulfonamide] | < 400 | < 400 |  |
| C=Cn1cc2cccc(NS(=O)(=O)c3ccc(-n4cc(C(F)(F)F)cn4)nc3)c2n1 [Example I-297] | > 2500 | > 2500 |  |
| Cn1[nH]c2c(NS(=O)(=O)c3ccc(-n4cc(C(F)(F)F)cn4)nc3)cccc2c1=O [Example I-181, N-(2-methyl-3-oxo-2,3-dihydro-1H-indazol-7-yl)-6-(4-(trifluoromethyl)-1H-pyrazol-1-yl)pyridine-3-sulfonamide] | 400 to 1000 | > 2500 |  |
| COc1ccc2ccn(C)c2c1NS(=O)(=O)c1ccc(-n2cc(C(F)(F)F)cn2)nc1 [Example I-188, N-(6-methoxy-1-methyl-1H-indol-7-yl)-6-(4-(trifluoromethyl)-1H-pyrazol-1-yl)pyridine-3-sulfonamide] | < 400 | < 400 |  |
| COc1ccc2cnn(C)c2c1NS(=O)(=O)c1ccc(-n2ccn(C)c2=O)nc1 [Example I-160, N-(6-Methoxy-1-Methyl-1H-Indazol-7-yl)-6-(3-Methyl-2-Oxo-2,3-Dihydro-1H-Imidazol-1-yl)Pyridine-3-Sulfonamide] | < 400 | 1000 to 2500 |  |
| COc1ccc2cnn(C)c2c1NS(=O)(=O)c1ccc(-n2cc(F)cn2)nc1 [Example I-150, 6-(4-Fluoro-1H-Pyrazol-1-yl)-N-(6-Methoxy-1-Methyl-1H-Indazol-7-yl)Pyridine-3-Sulfonamide] | < 400 | < 400 |  |
| [2H]C([2H])([2H])n1ncc2ccc(OC)c(NS(=O)(=O)c3ccc(-n4cc(C(F)(F)F)cn4)nc3)c21 [Example I-75, N-(6-Methoxy-1-(Methyl-D3)-1H-Indazol-7-yl)-6-(4-(Trifluoromethyl)-1H-Pyrazol-1-yl)Pyridine-3-Sulfonamide] | < 400 | < 400 |  |
| COc1ccc2cnn(C)c2c1NS(=O)(=O)c1ccc(-n2nccc2C2CC2)nc1 [Example I-147, 6-(5-Cyclopropyl-1H-Pyrazol-1-yl)-N-(6-Methoxy-1-Methyl-1H-Indazol-7-yl)Pyridine-3-Sulfonamide] | 400 to 1000 | > 2500 |  |
| Cn1ncc2cccc(NS(=O)(=O)c3ccc(-n4ncc5c4CCCC5)nc3)c21 [Example I-227, N-(1-Methyl-1H-Indazol-7-yl)-6-(4,5,6,7-Tetrahydro-1H-Indazol-1-yl)Pyridine-3-Sulfonamide] | < 400 | 1000 to 2500 |  |
| Cn1ncc2cccc(NS(=O)(=O)c3ccc(-n4cc5c(n4)CCOC5)nc3)c21 [Example I-247, N-(1-methylindazol-7-yl)-6-{4H,6H,7H-pyrano[4,3-c]pyrazol-2-yl}pyridine-3-sulfonamide] | < 400 | > 2500 |  |
| COc1ncc2cnn(C)c2c1NS(=O)(=O)c1ccc(-c2cnn3c2COCC3)nc1 [Example I-301] | 1000 to 2500 | 1000 to 2500 |  |
| Cc1ccncc1-c1ccc(S(=O)(=O)Nc2cccc3cnn(C)c23)cn1 [Example I-123, 4′-Methyl-N-(1-Methyl-1H-Indazol-7-yl)-2,3′-Bipyridine-5-Sulfonamide] | 400 to 1000 | > 2500 |  |
| COc1ccc2cnn(C)c2c1N(CCN(C)C)S(=O)(=O)c1ccc(-n2cc(C(F)(F)F)cn2)nc1 [Example I-163, N-(2-(Dimethylamino)Ethyl)-N-(6-Methoxy-1-Methyl-1H-Indazol-7-yl)-6-(4-(Trifluoromethyl)-1H-Pyrazol-1-yl)Pyridine-3-Sulfonamide] |  | < 400 | 1000 to 2500 |
| COc1ccc2cnn(C)c2c1NS(=O)(=O)c1ccc(CO)nc1 [Example I-177, 6-(Hydroxymethyl)-N-(6-Methoxy-1-Methyl-1H-Indazol-7-yl)Pyridine-3-Sulfonamide] | > 2500 | > 2500 |  |
| Cn1c(=O)c2cccc(NS(=O)(=O)c3ccc(-n4cc(C(F)(F)F)cn4)nc3)c2n1C [Example I-158, N-(1,2-Dimethyl-3-Oxo-2,3-Dihydro-1H-Indazol-7-yl)-6-(4-(Trifluoromethyl)-1H-Pyrazol-1-yl)Pyridine-3-Sulfonamide] | > 2500 | > 2500 |  |
| COc1ccc2cnn(C)c2c1NS(=O)(=O)c1ccc(-n2nc(C(F)(F)F)c3c2CCOC3)nc1 [Example I-304, N-(6-methoxy-1-methyl-1H-indazol-7-yl)-6-(3-(trifluoromethyl)-6,7-dihydropyrano[4,3-c]pyrazol-1(4H)-yl)pyridine-3-sulfonamide] | < 400 | < 400 |  |
| Cn1ncc2cccc(NS(=O)(=O)c3ccc(-n4cc([N+](=O)[O-])cn4)nc3)c21 [Example I-41, N-(1-Methylindazol-7-yl)-6-(4-Nitropyrazol-1-yl)Pyridine-3-Sulfonamide] | 400 to 1000 | < 400 |  |
